The text below walks through data of US6444837B1, “Synthesis and antiviral activity of a series of pyrophosphate analogs” (University of Southern California, priority 1998, dated 2002).

One series deals with HHV-8. In words: quantitative PCR-based (Taqman) assay for agents active against HHV-8 in TPA-induced BCBL-1 cells. The class given is cell-based, human herpesvirus 8. Here is the method: 3. […] Samples were incubated at 37° C. for 30 minutes.
4. […] Total reaction volumes were 50 μL.

For series [1], the target named is HIV reverse transcriptase (Human immunodeficiency virus type 1 group M subtype B, UniProt P03366). The note with it: HIV RT; cited from earlier work.
For series [2] the following is noted: in vivo; cited from earlier work.
A short description of series [3]: XTT-tetrazolium assay of compound toxicity to host cells. The class given is cell-based. Particulars: human; Table IV, six concentrations; read-out: TC50.
Procedure: Culturing these cells in the presence of phobol ester induces a lytic infection cycle, resulting in the release of viral particles into the medium. Compound efficacy in this proposed assay was determined using the Taqman PCR technology, and compound toxicity to host cells was assessed using an XTT-tetrazolium assay.
1. BCBL-1 cells were counted by the trypan blue dye exclusion method, and the cell count/mL was determined. Cells were pelleted by centrifugation and washed once with PBS to minimize the basal level of virus released from untreated cells which spontaneously enter the lytic cycle and release virus.
2. Cells were resuspended in fresh media and adjusted to a cell density of 1×10^5 per mL. Cells were then plated in the interior wells of 96-well round-bottom microtiter plates in a volume of 50 μL per well.
3. The phorbol ester TPA was added to appropriate wells in a volume of 50 μL per well to yield a final concentration of 20 ng/mL. Medium was added in place of TPA in three wells to serve as a negative control.
4. Test compounds were diluted in DMSO to a stock concentration which is 400× the desired high concentration. These compounds were further diluted in complete medium in 1.2 mL titertubes to yield a solution which is 2× the desired high concentration. […]
2. […] Plates were read on UVMax microtiter plate reader at a wavelength of 450/650 nm.
Another series relates to Cytomegalovirus (CMV). The note with it: clinical trials, AIDS patients; cited from earlier work.

As to `CCCCCCCCCCCCCCOC(=O)P(=O)([O-])OC.[Na+]` [ID# 8], the “antiviral activity against HHV-8 (in words)” value in the series with HHV-8 (bioassay with HHV-8) is “moderate to relatively high antiviral activity”.

What is called IC50 is the concentration at which inhibition is half-maximal. In the case of `O=C(O)P(=O)(O)O` [Foscarnet, Trisodium phosphonoformate], the IC50 in series [1] is about 1 µM; in the series with HHV-8 (Human gammaherpesvirus 8, BCBL1, Table IV, six concentrations, Foscarnet value is average of six separate tests), 7.7 µM. Also, in series [2], the oral bioavailability result is “low”. Also, in series [3], the CC50 at 6 days is over 300 µM. For the same compound, in the series with Cytomegalovirus (CMV), the “efficacy in treatment of CMV infection” value is on record as “efficacious”. Further, the nephrotoxicity entry with Cytomegalovirus (CMV) was “reversible nephrotoxicity”. In the series on HHV-8, the “TI (therapeutic index)” value is listed as over 38.9. Besides, the result with HHV-8 (Table IV, by TI) was active.
